Laboratory results published in ChEMBL document CHEMBL6087469, “Targeting Oncogenic RET Kinase by Simultaneously Inhibiting Kinase Activity and Degrading the Protein” (J Med Chem, 2025).
Calls of active or inactive are those of the source. The calls are words filed in the database; no cut-off is given here.

Key:
[1] = system: TPC1; assay: Inhibition of cell proliferation in human TPC1 cells measured after 5 days by Cell Titer Glo assay; format: functional, cell-based; settings: time 5.0 day
[2] = biological target: Coiled-coil domain-containing protein 6/Tyrosine-protein kinase receptor RET (Homo sapiens) (UniProt P07949+Q16204); assay: Inhibition of CCDC6-RET fusion kinase activity in human TPC1 cells upto 250 nM incubated for 24 hrs by immunoblotting analysis; format: cell-based
Chain of Coiled-coil domain-containing protein 6/Tyrosine-protein kinase receptor RET (Homo sapiens) (P07949 29-1114 limits assumed): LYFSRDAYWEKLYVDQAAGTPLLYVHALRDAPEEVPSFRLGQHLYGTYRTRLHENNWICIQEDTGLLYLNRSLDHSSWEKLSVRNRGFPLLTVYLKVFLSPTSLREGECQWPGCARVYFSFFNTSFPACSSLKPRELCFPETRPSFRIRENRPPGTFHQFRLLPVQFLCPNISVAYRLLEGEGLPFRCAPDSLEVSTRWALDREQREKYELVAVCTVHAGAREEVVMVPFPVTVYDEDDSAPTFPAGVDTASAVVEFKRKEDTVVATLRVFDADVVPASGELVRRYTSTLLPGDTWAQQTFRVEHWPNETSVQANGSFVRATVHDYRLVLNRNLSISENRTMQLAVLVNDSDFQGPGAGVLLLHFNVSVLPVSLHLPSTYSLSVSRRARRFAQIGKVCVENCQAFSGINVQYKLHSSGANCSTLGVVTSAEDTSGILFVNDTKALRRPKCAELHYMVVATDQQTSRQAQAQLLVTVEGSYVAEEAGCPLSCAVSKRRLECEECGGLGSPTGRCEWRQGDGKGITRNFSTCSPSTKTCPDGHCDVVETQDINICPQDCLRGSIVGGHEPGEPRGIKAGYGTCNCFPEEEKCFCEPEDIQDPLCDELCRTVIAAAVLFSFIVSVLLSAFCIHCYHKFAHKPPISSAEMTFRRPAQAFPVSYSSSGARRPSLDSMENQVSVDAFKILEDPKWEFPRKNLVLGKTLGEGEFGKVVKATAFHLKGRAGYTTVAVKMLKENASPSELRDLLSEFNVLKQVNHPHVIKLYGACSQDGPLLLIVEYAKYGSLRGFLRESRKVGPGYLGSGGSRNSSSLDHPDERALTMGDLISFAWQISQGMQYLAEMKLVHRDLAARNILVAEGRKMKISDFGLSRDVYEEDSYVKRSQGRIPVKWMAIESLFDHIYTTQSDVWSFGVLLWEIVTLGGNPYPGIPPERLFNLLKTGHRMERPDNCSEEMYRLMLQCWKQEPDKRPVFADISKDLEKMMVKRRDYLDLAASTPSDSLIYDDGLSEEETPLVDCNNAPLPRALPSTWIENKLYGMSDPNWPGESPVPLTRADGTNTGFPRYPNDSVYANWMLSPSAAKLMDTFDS
Chain of Coiled-coil domain-containing protein 6/Tyrosine-protein kinase receptor RET (Homo sapiens) (Q16204 2-474 partner limits assumed): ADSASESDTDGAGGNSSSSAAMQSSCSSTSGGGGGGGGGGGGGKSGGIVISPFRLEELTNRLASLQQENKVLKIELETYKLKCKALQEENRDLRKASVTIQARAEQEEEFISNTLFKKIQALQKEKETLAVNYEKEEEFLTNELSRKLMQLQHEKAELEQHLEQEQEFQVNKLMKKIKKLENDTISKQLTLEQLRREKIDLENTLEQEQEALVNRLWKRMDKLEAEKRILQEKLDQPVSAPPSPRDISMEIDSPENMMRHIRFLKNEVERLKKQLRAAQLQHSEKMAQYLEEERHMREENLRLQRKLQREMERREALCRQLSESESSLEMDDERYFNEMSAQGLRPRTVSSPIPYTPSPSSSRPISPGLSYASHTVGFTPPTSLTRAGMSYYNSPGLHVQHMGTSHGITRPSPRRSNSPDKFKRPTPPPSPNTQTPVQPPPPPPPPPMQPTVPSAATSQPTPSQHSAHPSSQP

[3] = system: TPC1; assay: Induction of CCDC6-RET fusion degradation in human TPC1 cells upto 250 nM incubated for 24 hrs by immunoblotting analysis; format: cell-based
[4] = AUC (0 to infinity) in mouse at 50 mg/kg, ip measured for 48 hrs by LC/MS/MS analysis; format: ADME, organism-based; settings: in vivo
[5] = Cmax in mouse at 50 mg/kg, ip measured for 48 hrs by LC/MS/MS analysis; format: ADME, organism-based; settings: in vivo
[6] = Tmax in mouse at 50 mg/kg, ip measured for 48 hrs by LC/MS/MS analysis; format: ADME, organism-based; settings: in vivo
[7] = Half life in mouse at 50 mg/kg, ip measured for 48 hrs by LC/MS/MS analysis; format: ADME, organism-based; settings: in vivo
[8] = system: TPC1; assay: Downregulation of CDK2 expression in human TPC1 cells at 200 nM incubated for 24 hrs by TMT mass spectrometric proteomic analysis; format: functional, cell-based
[9] = system: TPC1; assay: Downregulation of AURKA expression in human TPC1 cells at 200 nM incubated for 24 hrs by TMT mass spectrometric proteomic analysis; format: functional, cell-based
[10] = system: TPC1; assay: Downregulation of AURKB expression in human TPC1 cells at 200 nM incubated for 24 hrs by TMT mass spectrometric proteomic analysis; format: functional, cell-based
[11] = system: TPC1; assay: Downregulation of MKI67 expression in human TPC1 cells at 200 nM incubated for 24 hrs by TMT mass spectrometric proteomic analysis; format: functional, cell-based
[12] = system: TPC1; assay: Downregulation of CDKN1B expression in human TPC1 cells at 200 nM incubated for 24 hrs by TMT mass spectrometric proteomic analysis; format: functional, cell-based

With `COc1ccc(CN2C3CC2CN(c2ccc(-c4cc(OCCCCCCCC(=O)N5CCN(c6ccc(C(=O)NCCOc7ccc(C8CCC(=O)N(C)C8=O)cc7)cn6)CC5)cn5ncc(C#N)c45)cn2)C3)cn1` (stereo not drawn) the inhibition [1] was “Active”, the inhibition [2] was “Active” and the Activity [3] was “inactive”.

With `COc1ccc(CN2C3CC2CN(c2ccc(-c4cc(OCCCC(=O)N5CCC(N6CCC(C#Cc7ccc(C(=O)NCC#Cc8ccc9c(c8)CN(C8CCC(=O)NC8=O)C9=O)cc7)CC6)CC5)cn5ncc(C#N)c45)cn2)C3)cn1` (stereo not drawn) the inhibition [1] was “Active”, the AUC(0-inf) [4] was 3670 ng·h/mL and the Cmax ([5]; read-out: Cmax) was 1140 ng/mL. The Tmax ([6]; read-out: Tmax) was 1 h and the half-life [7] was 7.3 h.

In the case of `COc1ccc(CN2C3CC2CN(c2ccc(-c4cc(OCCCC(=O)NC5CC6(CCN(c7ccc(C(=O)NCCOc8ccc(C9CCC(=O)NC9=O)cc8)cc7)CC6)C5)cn5ncc(C#N)c45)cn2)C3)cn1` (stereo not drawn), the inhibition [1] was “Active”, the AUC ([4]; ip, 50 mg/kg, 48 h) was 2342.1 ng·h/mL and the Cmax ([5]; ip, 50 mg/kg, 48 h) was 44.9 ng/mL. It also gave a Tmax ([6]; ip, 50 mg/kg, 48 h) of 0.17 h and a t1/2 ([7]; ip, 50 mg/kg, 48 h) of 0.25 h.

With `COc1ccc(CN2C3CC2CN(c2ccc(-c4cc(OCC(C)(C)O)cn5ncc(C#N)c45)cn2)C3)cn1` the Activity [8] was “Active”, the Activity [9] was “Active” and the Activity [10] was “Active”. The Activity [11] was “Active” and the Activity [12] was “Active”.
